According to PubChem BioAssay (NCI):
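A five-concentration, 48-hour dose response in 96-well plates underlies each endpoint, interpolated linearly between surrounding concentrations. GI50 marks 50% less growth. At the TGI there is no net growth.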

Tests used:
Assay in all cases: inhibition of tumour cell growth, NCI panel, 48 h
[1] = system: MCF7 breast
[2] = system: KM20L2 colon
[3] = system: HOP-18 NSCLC
[4] = system: XF 498 CNS
[5] = system: CAKI-1 renal
[6] = system: DU-145 prostate
[7] = system: DMS 273 small cell lung
[8] = system: DMS 114 small cell lung
[9] = system: LXFL 529 NSCLC
[10] = system: T-47D breast
[11] = system: HS 578T breast

Structure (SMILES): COc1cc2c(cc1OC)C(OC)N(C)c1c-2ccc2cc3c(cc12)OCO3 (centres undefined)
- TGI [1]: 12.6 µM
- TGI [2]: 6.5 µM
- TGI [3]: 68.5 µM
- TGI [4]: 2.95 µM
- TGI [5]: 33 µM
- TGI [6]: > 75 µM
- TGI [7]: 14.4 µM
- TGI [8]: 12.3 µM

Structure (SMILES): CN1C(c2ccccc2)CS(=O)(=O)CS1(=O)=O (centres undefined)
- TGI [2]: > 100 µM
- TGI [3]: > 100 µM
- TGI [4]: > 100 µM
- TGI [5]: > 100 µM
- TGI [9]: > 100 µM
- TGI [7]: > 100 µM
- TGI [8]: > 100 µM

Structure (SMILES): CN(CC#N)C1CCCC[C@H]1O (some centres undefined)
- TGI [2]: > 100 µM
- TGI [3]: > 100 µM
- TGI [4]: > 100 µM
- TGI [5]: > 100 µM
- TGI [9]: > 100 µM
- TGI [7]: > 100 µM
- TGI [8]: > 100 µM

Structure (SMILES): O=C(Nc1cccc(Cc2cccc(NC(=O)c3ccccc3)c2)c1)c1ccccc1
- TGI [2]: > 100 µM
- TGI [3]: > 100 µM
- TGI [5]: 47.9 µM
- TGI [9]: > 100 µM
- TGI [7]: > 100 µM
- TGI [8]: > 100 µM

Structure (SMILES): NC(=O)c1coc(C2OC(CO)C(O)C2O)n1 (centres undefined)
- TGI [2]: > 100 µM
- TGI [3]: > 100 µM
- TGI [9]: > 100 µM
- TGI [7]: > 100 µM
- TGI [8]: > 100 µM

Structure (SMILES): O/N=C1/C(=C/c2ccc(Oc3ccccc3)cc2)CCCC1C(NO)c1ccc(Oc2ccccc2)cc1 (centres undefined)
- TGI [2]: 26.7 µM
- TGI [3]: > 100 µM
- TGI [4]: > 100 µM
- TGI [5]: 88.6 µM
- TGI [9]: > 100 µM
- TGI [7]: > 100 µM
- TGI [8]: > 100 µM

Structure (SMILES): CCOC(=O)C(=O)Nc1ccc(Cl)cc1C
- TGI [2]: > 100 µM
- TGI [3]: > 100 µM
- TGI [4]: > 100 µM
- TGI [5]: > 100 µM
- TGI [9]: > 100 µM
- TGI [7]: > 100 µM
- TGI [8]: > 100 µM

Structure (SMILES): COC(=O)CCC(=O)Nc1cc(Cl)ccc1Cl
- TGI [2]: > 100 µM
- TGI [3]: > 100 µM
- TGI [4]: > 100 µM
- TGI [5]: > 100 µM
- TGI [9]: > 100 µM
- TGI [8]: > 100 µM

Structure (SMILES): CN(C)/N=C(/c1nc2ccc([N+](=O)[O-])cc2[nH]c1=O)C(O)c1ccco1 (centres undefined)
- TGI [2]: > 100 µM
- TGI [4]: > 100 µM
- TGI [5]: > 100 µM
- TGI [9]: > 100 µM
- TGI [7]: > 100 µM
- TGI [8]: > 100 µM

Structure (SMILES): CC(=O)c1ccc2c(ccc(=O)n2C)c1
- TGI [2]: > 100 µM
- TGI [3]: > 100 µM
- TGI [4]: > 100 µM
- TGI [5]: > 100 µM
- TGI [9]: > 100 µM
- TGI [7]: > 100 µM
- TGI [8]: > 100 µM

Structure (SMILES): O=C(c1ccccc1)c1oc2ccc(Br)cc2c1-c1cnn(-c2ccccc2)c1
- TGI [2]: > 100 µM
- TGI [4]: > 100 µM
- TGI [5]: > 100 µM
- TGI [9]: > 100 µM
- TGI [7]: > 100 µM
- TGI [8]: > 100 µM

Structure (SMILES): O=C(CC1(O)C(=O)Nc2ccccc21)c1ccco1 (centres undefined)
- TGI [2]: > 100 µM
- TGI [4]: > 100 µM
- TGI [5]: > 100 µM
- TGI [9]: > 100 µM
- TGI [7]: > 100 µM
- TGI [8]: > 100 µM

Structure (SMILES): Cc1ccc(NC(=O)C(=O)CC(=O)C2CCOC2=O)c(C)c1 (centres undefined)
- TGI [2]: > 100 µM
- TGI [3]: > 100 µM
- TGI [4]: > 100 µM
- TGI [5]: > 100 µM
- TGI [9]: > 100 µM
- TGI [7]: > 100 µM
- TGI [8]: > 100 µM

Structure (SMILES): O=S(=O)(N/N=C/c1cccc(Cl)c1Cl)c1ccccc1
- TGI [2]: > 100 µM
- TGI [3]: > 100 µM
- TGI [4]: > 100 µM
- TGI [5]: > 100 µM
- TGI [9]: > 100 µM
- TGI [7]: > 100 µM
- TGI [8]: 90.3 µM

Structure (SMILES): COc1ccc(N/N=C(\CCN(C)C)c2ccccc2)cc1
- TGI [2]: 1.71 µM
- TGI [3]: > 100 µM
- TGI [9]: 3.8 µM
- TGI [7]: 11.1 µM
- TGI [8]: 27.6 µM

Structure (SMILES): CC1=C(C(=O)Nc2cc(=O)n(C)c(=O)n2C)C(c2ccc([N+](=O)[O-])cc2)C(C(=O)Nc2cc(=O)n(C)c(=O)n2C)=C(C)N1
- TGI [2]: > 100 µM
- TGI [3]: > 100 µM
- TGI [4]: > 100 µM
- TGI [9]: > 100 µM
- TGI [8]: > 100 µM

Structure (SMILES): CC(=O)OC1CC2Oc3ccc(C)cc3C(C)(O2)C1=O (centres undefined)
- TGI [3]: > 100 µM
- TGI [4]: > 100 µM
- TGI [7]: > 100 µM
- TGI [8]: > 100 µM

Structure (SMILES): O=C(Cc1nc2ccccc2s1)C(=O)Nc1cccc(Cl)c1
- TGI [2]: > 100 µM
- TGI [4]: > 100 µM
- TGI [5]: > 100 µM
- TGI [9]: > 100 µM
- TGI [7]: > 100 µM
- TGI [8]: > 100 µM

Structure (SMILES): O=C(Cc1csc(-c2nc(CC(=O)NNc3ccccc3)cs2)n1)NNc1ccccc1
- TGI [2]: > 100 µM
- TGI [3]: > 100 µM
- TGI [4]: > 100 µM
- TGI [5]: > 100 µM
- TGI [9]: > 100 µM
- TGI [7]: 34.2 µM
- TGI [8]: 45.1 µM

Structure (SMILES): COc1ccc(C(=O)C(c2ccc(OC)cc2)C2OC(=O)C(Cl)=C2Cl)cc1 (centres undefined)
- TGI [3]: > 100 µM
- TGI [4]: > 100 µM
- TGI [5]: > 100 µM
- TGI [9]: > 100 µM
- TGI [8]: > 100 µM

Structure (SMILES): CN(/N=C/c1cccc2cccnc12)c1ccc([N+](=O)[O-])cc1
- TGI [2]: > 100 µM
- TGI [3]: > 100 µM
- TGI [4]: > 100 µM
- TGI [5]: > 100 µM
- TGI [9]: > 100 µM
- TGI [7]: > 100 µM
- TGI [8]: > 100 µM

Structure (SMILES): COc1ccc(C[C@@H]2NC[C@@H](O)[C@@H]2OC(C)=O)cc1
- TGI [2]: > 100 µM
- TGI [3]: 6.35 µM
- TGI [10]: 0.193 µM
- GI50 [5]: 30.3 µM
- TGI [6]: 0.0947 µM
- TGI [11]: 0.169 µM
- TGI [9]: 24.1 µM
- TGI [7]: > 100 µM
- TGI [8]: > 100 µM

Structure (SMILES): CN(C)CCNC(=O)c1cccc2c(Nc3ccc(S(N)(=O)=O)cc3)c3ccccc3nc12
- TGI [2]: 13.3 µM
- TGI [3]: 9.2 µM
- TGI [4]: 1.81 µM
- TGI [5]: 13.6 µM
- TGI [9]: 2.23 µM
- TGI [7]: 3.71 µM
- TGI [8]: 2.3 µM

Structure (SMILES): COc1cc(O)c2c(c1)C(=O)C=C(Cl)C2=O
- TGI [2]: > 100 µM
- TGI [3]: > 100 µM
- TGI [4]: > 100 µM
- TGI [5]: > 100 µM
- TGI [9]: > 100 µM
- TGI [7]: > 100 µM
- TGI [8]: > 100 µM

Structure (SMILES): CC1(C)OB(O)OC1(C)C
- TGI [2]: > 100 µM
- TGI [3]: > 100 µM
- TGI [4]: > 100 µM
- TGI [5]: > 100 µM
- TGI [9]: > 100 µM
- TGI [7]: > 100 µM
- TGI [8]: > 100 µM

Structure (SMILES): O=C(O)/C(Cl)=C(\Cl)C(=O)NC1C2CC3CC(C2)CC1C3 (centres undefined)
- TGI [2]: > 100 µM
- TGI [3]: > 100 µM
- TGI [4]: > 100 µM
- TGI [5]: > 100 µM
- TGI [9]: > 100 µM
- TGI [7]: > 100 µM
- TGI [8]: > 100 µM

Structure (SMILES): O=C1c2ccccc2NC1(c1ccccc1)c1c(-c2ccccc2)[nH]c2ccccc12 (centres undefined)
- TGI [2]: > 100 µM
- TGI [3]: > 100 µM
- TGI [4]: 99 µM
- TGI [5]: > 100 µM
- TGI [9]: > 100 µM
- TGI [7]: > 100 µM
- TGI [8]: > 100 µM

Structure (SMILES): O=S(=O)(SCc1ccccc1)C(c1ccccc1)c1ccccc1
- TGI [2]: 40.5 µM
- TGI [4]: > 100 µM
- TGI [5]: 93.8 µM
- TGI [9]: > 100 µM
- TGI [7]: > 100 µM
- TGI [8]: 48.1 µM

Structure (SMILES): NCCN.NCCN.O=C[O-].O=C[O-].[Co+3].[O-][Cl+3]([O-])([O-])[O-]
- GI50 [2]: > 100 µM
- TGI [2]: > 100 µM
- GI50 [3]: > 100 µM
- TGI [3]: > 100 µM
- GI50 [5]: > 100 µM
- TGI [5]: > 100 µM
- GI50 [9]: > 100 µM
- TGI [9]: > 100 µM
- GI50 [8]: > 100 µM
- TGI [8]: > 100 µM

Structure (SMILES): C[C@@H](CN1CC(=O)NC(=O)C1)N1CC(=O)NC(=O)C1
- TGI [1]: 498 µM
- TGI [2]: 1290 µM
- TGI [3]: 1180 µM
- TGI [4]: 201 µM
- TGI [10]: 1020 µM
- GI50 [5]: 80.7 µM
- TGI [5]: 772 µM
- TGI [6]: 1430 µM
- TGI [11]: 1810 µM
- TGI [7]: 626 µM
- TGI [8]: 441 µM

Structure (SMILES): CC(=O)C1C(=O)NC(=O)C1=O (centres undefined)
- TGI [2]: > 100 µM
- TGI [3]: > 100 µM
- TGI [4]: > 100 µM
- TGI [5]: > 100 µM
- TGI [9]: > 100 µM
- TGI [7]: > 100 µM
- TGI [8]: > 100 µM

Structure (SMILES): CCN(CC)CCCC(C)Nc1ccnc2ccc3nn(C)nc3c12 (centres undefined)
- TGI [2]: > 100 µM
- TGI [3]: > 100 µM
- TGI [5]: > 100 µM
- TGI [9]: > 100 µM
- TGI [7]: 91.5 µM
